# “Also recorded” adds a separate entry of the source.
# Key:
# [1] = system: human HL-60 tumor cell xenografts; assay: Subcutaneous HL-60 tumor xenograft model in SCID mice; assay type: in vivo
# Method: (§1) Subcutaneous tumor model—HL-60 human promyelocytic leukemia cells (5×10^6 cells in 0.1 mL) were subcutaneously inoculated into the right flank of female SCID mice. Mice were treated by intravenous injection into a lateral tail vein starting when tumors reached 100 mm^3 in size (400 mm^3 in large tumor model). Tumor size and mouse body weight were measured twice per week. Survival model—HL-60 cells (5×10^6 cells in 0.1 mL) were intravenously injected into the lateral tail vein of female SCID mice. Eleven days after tumor cell injection treatment was started. Mice were checked every day for moribund, tumor mass, or death. Body weight was measured twice per week.
# The efficacy of My9-6-DM1 in vivo was determined using SCID mice bearing human HL-60 tumor cell xenografts. HL-60 cells were injected subcutaneously and tumors were allowed to grow to an average size of 100 mm^3. Dosage is expressed as mg antibody in the conjugate, which corresponds to a DM1 dose of approximately 15 μg DM1 per mg of antibody. Tumor volume was measured as an indication of treatment efficacy and mouse body weight was monitored to indicate toxicity due to treatment.
# [2] = system: HL-60 cells injected intravenously; assay: HL-60 cell mouse survival model; assay type: in vivo, SCID mice; settings: treatment starting 11 days after cell injection
# Method: FIGS. 24A & B show anti-tumor efficacy of My9-6-DM1 compared with Gentuzumab ozogamicin and standard chemotherapy in an HL-60 survival model. HL-60 cells were intravenously injected into SCID mice. Indicated treatments were started 11 days following injection of cells. Treatments were i.v. daily ×5 except for Gentuzumab ozogamicin (Q4D×3).
# as §1
# While the efficacy of My9-6-DM1 in the tumor xenograft model is striking, it is also of interest to look at the activity of the conjugate in a mouse survival model where HL-60 cells are injected directly into a mouse tail vein. In this model, control mice die between 30 and 50 days after cell injection. […] However, even in this model, standard chemotherapy provided no significant survival enhancement (FIG. 24B).
# CD33 [3] = molecular target: T1, CD33 (Homo sapiens, UniProt P20138); settings: 9 mg/m^2 i.v. over 4 hours, repeated after 14 days; cited from earlier work
# T1 construct: Gemtuzumab ozogamicin was evaluated in phase I and II clinical studies; host or cells: patients (AML)
# T1 sequence (P20138 18-364): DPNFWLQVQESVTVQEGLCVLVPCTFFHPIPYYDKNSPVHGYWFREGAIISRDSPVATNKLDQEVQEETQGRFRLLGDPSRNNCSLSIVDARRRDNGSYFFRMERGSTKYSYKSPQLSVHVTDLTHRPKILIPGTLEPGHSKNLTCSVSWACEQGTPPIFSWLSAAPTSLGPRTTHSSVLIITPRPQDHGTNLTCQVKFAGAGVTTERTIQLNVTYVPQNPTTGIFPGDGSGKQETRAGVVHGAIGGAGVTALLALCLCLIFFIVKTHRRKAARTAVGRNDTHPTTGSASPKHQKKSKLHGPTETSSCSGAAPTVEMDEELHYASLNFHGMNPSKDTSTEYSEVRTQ
# CD33 [4] = molecular target: T1, CD33; settings: Phase I; cited from earlier work
# [5] = in vivo; cited from earlier work
# [6] = system: leukemia cells (HL-60 cell cultures, HL-60 tumor xenografts in mice, marrow samples from AML patients); settings: cited from earlier work
# [7] = nude mice; cited from earlier work
# CD33 on HL-60 cells = molecular target: T2, CD33 on HL-60 cells (Homo sapiens, UniProt P20138); assay: Antibody and conjugate binding to HL-60 cells by flow cytometry
# T2 construct: endogenous in cells; host or cells: HL-60 human leukemic cell line (whole cells; plasma membranes prepared from HL-60)
# T2 sequence (P20138 18-364): as above
# Method: HL-60 cells were incubated with various concentrations of either My9-6 antibody or My9-6-DM1. The cells were then washed and incubated with a secondary FITC-labeled anti-murine IgG antibody. Following an additional wash, cells were fixed with 2% formaldehyde and cell-associated fluorescence was quantified using a BD FACScan flow cytometer.
# THP-1 cells = assay: In vitro clonogenic cytotoxicity assay, CD33-expressing cells; assay type: cell-based, human; settings: THP-1, clonogenic assay
# Method: (§2) The cytotoxicity of My9-6-DM1 was measured using the CD33-expressing THP-1 cell and the CD33-negative cell line Namalwa. Cells were plated in 96-well plates in media containing the conjugate and incubated at 37° C. until colonies had formed (2-3 weeks). Colonies were then scored, and the surviving fractions determined using Poisson distribution in the calculations.
# (§3) The cytotoxicity of My9-6-DM1 toward CD33 expressing cells (THP-1) compared to a CD33-negative cell line (Namalwa) was tested using a clonogenic assay, where cell killing activity is determined by quantifying the number of colonies that can grow following treatment.
# Namalwa cells = assay: In vitro clonogenic cytotoxicity assay, CD33-negative cells; assay type: cell-based
# Method: as §2, §3
# [8] = system: human THP-1 tumor xenografts; assay: Subcutaneous THP-1 tumor xenograft model in mice; assay type: in vivo; settings: data not shown
# large HL-60 tumors = assay: Large HL-60 tumor xenograft model in SCID mice; assay type: in vivo
# Method: as §1
# Tumors were allowed to grow to a tumor volume of >400 mm^3 prior to the initiation of treatment. In addition, a comparison of the activity of My9-6-DM1 with standard chemotherapeutic drugs was conducted. […]
# [9] = 100 μg/kg, every 4 days for 3 doses
# [10] = 20 mg conjugated antibody/kg/day i.v. ×5 days
# [11] = second treatment identical to the first
# [12] = tumor volume >400 mm^3 at start of treatment
substance,measurement,setting,value
Gemtuzumab ozogamicin: humanized anti-CD33 antibody conjugated to calicheamicin [reference compound],tumor growth delay,[1]; [9],about 25 days
same,tumor response,[1]; [9],modest tumor regression
same,toxicity in SCID mice,"[1]; 0.3 mg/kg, preliminary experiment, data not shown",too toxic
same,toxicity,"[1]; 100 and 200 μg/kg, every 4 days for 3 doses",Significant toxicity
same,maximum tolerated dose,"[1]; SCID mice, every 4 days for 3 doses",0.1 mg/kg
same,effect on survival,[2],modest increase in survival
same,response rate,CD33 [3],30%
same,major toxicity observed,CD33 [4],myelosuppression
same,toxicity in post-marketing reports,[5],venoocclusive disease (VOD)
same,killing of leukemia cells,[6],specific killing of leukemia cells
same,published MTD,[7],0.3 mg/kg
My9-6-DM1: murine My9-6 antibody linked via SPP disulfide linker to the maytansinoid DM1,CD33 binding of conjugate compared with unmodified antibody,CD33 on HL-60 cells,maintained the specificity and binding affinity of the unmodified antibody; also recorded: comparable to the unmodified antibody
same,cytotoxicity toward CD33-positive tumor cells,THP-1 cells,potent antigen-specific cytotoxicity; also recorded: potent cell killing activity
same,toxicity toward CD33-negative cells,Namalwa cells,No significant toxicity
same,mice showing complete cures,[1]; 13 mg/kg i.v. once a day for 5 days,2 of 5
same,tumor growth delay,"[1]; 13 mg/kg i.v. once a day for 5 days, the other 3 mice",approximately 20 days
same,toxicity,[1]; [10],no toxicity
same,tumor response,[1]; [10],complete eradication of the tumors
same,tumor response,[1]; 23 mg antibody/kg (350 μg DM1/kg) daily for 5 days,complete regression of the tumors
same,mouse body weight decrease,[1]; 23 mg antibody/kg daily for 5 days,12%
same,mice with regrowth of tumors,"[1]; 23 mg antibody/kg daily for 5 days, starting at day 70",two of the six
same,maximum body weight loss,[1]; 19 and 26 mg/kg i.v. once a day for 5 days,less than 10%
same,tumor response,"[1]; 19 and 26 mg/kg i.v. once a day for 5 days, tumors 100 mm^3",complete regression of the tumors
same,outcome of mice bearing HL-60 xenografts,[1]; i.v. once a day for 5 days,long-term cures
same,toxicity at curative doses,[1]; i.v. once a day for 5 days,little toxicity
same,response of relapsing tumors to second treatment,[1]; [11],complete regression
same,toxicity of second treatment,[1]; [11],no adverse toxicity
same,outcome of mice bearing THP-1 xenografts,[8],long-term cures
same,response of relapsed tumors to second treatment,large HL-60 tumors; second treatment of My9-6-DM1,sensitive to a second treatment
same,mice with relapsed tumors,large HL-60 tumors; [12],2 of 6
same,tumor response,large HL-60 tumors; [12],complete regression of large tumors
same,effect on survival,[2],dramatic increase in survival
same,mice alive at 70 days,[2]; i.v. daily ×5,7 of 8
